Measurements: patent US9550793B2, “Spirocyclic compounds, compositions and medicinal applications thereof” (Advinus Therapeutics Limited, priority 2012, dated 2017)

molecular target: T1, recombinant human DGAT1 (hDGAT1) (Homo sapiens, UniProt O75907); test: Membrane-based recombinant hDGAT1 inhibitory activity using LCMS method (Method A); format: biochemical; conditions: Sf9 membranes expressing hDGAT1
T1 construct: host or cells: Sf9 insect cells (baculovirus expression system), used as membrane preparation
T1 sequence (O75907 1-488): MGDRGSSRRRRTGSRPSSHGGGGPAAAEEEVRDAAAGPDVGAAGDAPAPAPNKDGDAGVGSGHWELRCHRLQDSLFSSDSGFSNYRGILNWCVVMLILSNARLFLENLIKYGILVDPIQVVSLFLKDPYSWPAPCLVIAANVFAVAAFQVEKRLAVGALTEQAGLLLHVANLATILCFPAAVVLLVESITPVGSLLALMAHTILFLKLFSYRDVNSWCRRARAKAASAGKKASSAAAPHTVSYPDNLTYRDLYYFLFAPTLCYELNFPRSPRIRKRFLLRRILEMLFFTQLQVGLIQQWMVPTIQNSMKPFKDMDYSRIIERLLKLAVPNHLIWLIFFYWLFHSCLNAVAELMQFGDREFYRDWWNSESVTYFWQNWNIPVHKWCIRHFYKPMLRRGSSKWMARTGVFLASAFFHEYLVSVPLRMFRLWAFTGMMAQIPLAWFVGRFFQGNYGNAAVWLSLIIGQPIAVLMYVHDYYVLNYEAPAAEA

**Q.** How did the IC50 turn out when `Nc1ncnc2c1C(=O)N(C1CCC3(CCC(CC(=O)O)CC3)CC1)CCO2` (stereo not shown) [Example J2, 2-[9-(4-amino-5-oxo-7,8-dihydropyrimido[5,4-f][1,4]oxazepin-6-yl)spiro[5.5]undecan-3-yl]acetic acid] was run?
**A.** 2500 nM

molecular target: T2, hDGAT1 (Homo sapiens, UniProt O75907); test: Cell based hDGAT1 inhibitory activity in HEK293H cells (13C-oleic acid to triolein, LC-MS); conditions: not given
T2 construct: endogenous in cells; host or cells: HEK293H cells
T2 sequence (O75907 1-488): T1 sequence (O75907 1-488)
Procedure: Measurement of Cell Based hDGAT1 Inhibitory Activity:
HEK293H cells were seeded in a 96-well poly-D-lysine plate at a density of 80000 cells per well. Following day, cells were washed with assay buffer-DMEM high glucose supplemented with 25 mM Hepes (pH7.5) carrying 0.25% fatty acid-free bovine serum. The cells were starved in assay buffer at 37° C./5% CO2 followed by removal of media and treatment with appropriate concentrations of the test compound at a final concentration of 0.2% DMSO for 20 min. 13C-Oleic acid pre-complexed with BSA (300 uM) was added and cells were incubated further at […]/5% CO2 for 120 min. The supernatant was removed and the cells were allowed to air dry briefly. The extraction solvent (90% isopropyl alcohol and 10% tetrahydrofuran with 20 nM of the internal standard [1,3-di-heptadecanoyl-2-(10Z-heptadecanoyl)-sn-glycerol-d5) was added to the cells, and allowed to shake at room temperature for 15 min. The extract was then transferred to glass vials for LC-MS analysis. An Applied Biosystems API3200 LC/MS system interfaced with a triplequadrupole mass spectrophotometer through a Turbo ion spray source was employed for the LC separation of the analytes using a Hi-Purity ADVANCE column eluted with 10 mM ammonium formate in IPA-H2O (80:20) at a flow rate of 0.4 mL/min. A characteristic in-source fragment ion m/z 639.7 formed from the precursor ion ^13C-54-triolein (m/z 956.8, ammonium adduct) at a collision energy of 30 and declustering potential 70 was monitored. IC50 values of the compounds were determined based on percent inhibition calculated on the basis of area ratio of product (TG) and internal standard (IS).

**Q.** Which IC50 does the source give for `COC(=O)C1CC2(CCC(c3ccc(NC(=O)c4nnc(Nc5ccc(F)c(F)c5)o4)cc3)CC2)C1` (stereo not shown) [Example A9, methyl 7-[4-[[5-(3,4-difluoroanilino)-1,3,4-oxadiazole-2-carbonyl]amino]phenyl]spiro[3.5]nonane-2-carboxylate] here?
**A.** 31 nM

**Q.** `CCOC(=O)C1CC2(CCN(c3ccc(NC(=O)c4nnc(Nc5ccc(F)c(F)c5)o4)cn3)CC2)C1` [Example A12, ethyl 7-[5-[[5-(3,4-difluoroanilino)-1,3,4-oxadiazole-2-carbonyl]amino]-2-pyridyl]-7-azaspiro[3.5]nonane-2-carboxylate] was tested. Which IC50 did it give?
**A.** 22 nM

**Q.** With `O=C(Nc1ccc(N2CCC3(CC2)CC(C(=O)O)C3)nc1)c1nnc(Nc2ccc(OCC(F)(F)F)nc2)o1` [Example B13, 7-[5-[[5-[[6-(2,2,2-trifluoroethoxy)-3-pyridyl]amino]-1,3,4-oxadiazole-2-carbonyl]amino]-2-pyridyl]-7-azaspiro[3.5]nonane-2-carboxylic acid] as the compound, how does the IC50 read?
**A.** 47 nM

**Q.** With `O=C(Nc1ccc(C2CCC3(CC2)CC3C(=O)O)cc1)c1nnc(Nc2ccc(F)c(F)c2)o1` (stereo not shown) [Example B14, 6-[4-[[5-(3,4-difluoroanilino)-1,3,4-oxadiazole-2-carbonyl]amino]phenyl] spiro [2.5] octane-2-carboxylic acid] as the compound, how does the IC50 read?
**A.** 21 nM

**Q.** For `O=C(Nc1ccc(C2CCC3(CC2)CC3C(=O)O)cc1)c1nnc(Nc2ccc(OCC(F)(F)F)nc2)o1` (stereo not shown) [Example B15, 6-[4-[[5-[[6-(2,2,-trifluoroethoxy)-3-pyridyl]amino]-1,3,4-oxadiazole-2-carbonyl]amino]phenyl] spiro [2.5] octane-2-carboxylic acid], which IC50 is on record?
**A.** 10 nM

**Q.** `O=C(Nc1ccc(C2CCC3(CC2)CC3C(=O)O)cc1)c1nnc(Nc2cccc(Cl)c2)o1` (stereo not shown) [Example B16, 6-[4-[[5-(3-chloroanilino)-1,3,4-oxadiazole-2-carbonyl]amino]phenyl] spiro [2.5] octane-2-carboxylic acid] was tested. Which IC50 did it give?
**A.** 16 nM

**Q.** How did the IC50 turn out when `O=C(Nc1ccc(N2CCC3(CC2)CC3C(=O)O)nc1)c1nnc(Nc2ccc(OCC(F)(F)F)nc2)o1` (stereo not shown) [Example B21, 6-[5-[[5-[[6-(2,2,2-trifluoroethoxy)-3-pyridyl]amino]-1,3,4-oxadiazole-2-carbonyl]amino]-2-pyridyl]-6-azaspiro [2.5] octane-2-carboxylic acid] was run?
**A.** 64 nM

**Q.** How did the IC50 turn out when `O=C(Nc1ccc(N2C3CCC2CC2(CC(C(=O)O)C2)C3)nc1)c1nnc(Nc2ccc(F)c(F)c2)o1` (stereo not shown) [Example B31, 8-[5-[[5-(3,4-difluoroanilino)-1,3,4-oxadiazole-2-carbonyl]amino]-2-pyridyl] spiro [8-azabicyclo [3.2.1]octane-3,3′-cyclobutane]-1′-carboxylic acid] was run?
**A.** 37 nM

**Q.** `O=C(Nc1ccc(N2CCC3(CC2)CC(C(=O)N2CCC(O)CC2)C3)nc1)c1nnc(Nc2ccc(F)c(F)c2)o1` [Example C6] was tested. Which IC50 did it give?
**A.** 33 nM

**Q.** Which IC50 does the source give for `O=C(Nc1ccc(N2CCC3(CC2)CC(C(=O)N2CC(O)C2)C3)nc1)c1nnc(Nc2ccc(F)c(F)c2)o1` [Example C8] here?
**A.** 11 nM

**Q.** How did the IC50 turn out when `O=C(Nc1ccc(N2CCC3(CC2)CC(F)(F)C3)nc1)c1nnc(Nc2ccc(F)c(F)c2)o1` [Example D1, 5-(3,4-difluoroanilino)-N-[6-(2,2-difluoro-7-azaspiro[3.5]nonan-7-yl)-3-pyridyl]-1,3,4-oxadiazole-2-carboxamide] was run?
**A.** 85 nM

**Q.** For `O=C(Nc1ccc(N2CCC3(CC2)CC(F)(F)C3)nc1)c1nnc(Nc2ccc(OCC(F)(F)F)nc2)o1` [Example D2], which IC50 is on record?
**A.** 64 nM

**Q.** `CC1CC2(CCN(c3ccc(NC(=O)c4nnc(Nc5ccc(F)c(F)c5)o4)cn3)CC2)C1` [Example D3] was tested. Which IC50 did it give?
**A.** 32 nM

**Q.** For `CC1CC2(CCN(c3ccc(NC(=O)c4nnc(Nc5ccc(OCC(F)(F)F)nc5)o4)cn3)CC2)C1` [Example D4], which IC50 is on record?
**A.** 26 nM

**Q.** Which IC50 does the source give for `O=C(Nc1ccc(N2CCC3(CC2)CC(O)C3)nc1)c1nnc(Nc2ccc(F)c(F)c2)o1` [Example D5] here?
**A.** 4 nM

**Q.** With `O=C(Nc1ccc(N2CCC3(CC2)CC(O)C3)nc1)c1nnc(Nc2ccc(OCC(F)(F)F)nc2)o1` [Example D6] as the compound, how does the IC50 read?
**A.** 4.2 nM

**Q.** How did the IC50 turn out when `O=C(Nc1ccc(N2CCC3(CC2)CC(CO)C3)nc1)c1nnc(Nc2ccc(F)c(F)c2)o1` [Example E1, 5-(3,4-difluoroanilino)-N-[6-[2-(hydroxymethyl)-7-azaspiro[3.5]nonan-7-yl]-3-pyridyl]-1,3,4-oxadiazole-2-carboxamide] was run?
**A.** 10 nM

**Q.** `NC(=O)C1CC2(CCN(c3ccc(NC(=O)c4nnc(Nc5ccc(F)c(F)c5)o4)cn3)CC2)C1` [Example F1, N-[6-(2-carbamoyl-7-azaspiro[3.5]nonan-7-yl)-3-pyridyl]-5-(3,4-difluoroanilino)-1,3,4-oxadiazole-2-carboxamide] was tested. Which IC50 did it give?
**A.** 44 nM

**Q.** Which IC50 does the source give for `NC(=O)CC1CCC2(CC1)CCN(c1ccc(NC(=O)c3nnc(Nc4ccc(F)c(F)c4)o3)cn1)CC2` [Example F2, N-[6-[3-(2-amino-2-oxo-ethyl)-9-azaspiro[5.5]undecan-9-yl]-3-pyridyl]-5-(3,4-difluoroanilino)-1,3,4-oxadiazole-2-carboxamide] here?
**A.** 19 nM

same assay, conditions: 1 uM

**Q.** Which “HEK293H cell % Inhibition at 1 uM” value does the source give for `CC1(C)CN(c2ccc(C3CCC4(CC3)CC4C(=O)O)cc2)C(=O)c2c(N)ncnc21` (stereo not shown) [Example L5, 6-[4-(4-amino-8,8-dimethyl-5-oxo-7H-pyrido[4,3-d]pyrimidin-6-yl)phenyl]spiro[2.5]octane-2-carboxylic acid] here?
**A.** No inhibition at 1 μM

same assay, conditions: HEK293-H, 1 uM

**Q.** How did the inhibition at 1 µM turn out when `O=C(Nc1ccc([C@H]2CC[C@]3(CC2)CC3C(=O)O)nc1)c1nnc(Nc2ccccc2)o1` (stereo partly drawn) [Example B24, Trans-6-[5-[(5-anilino-1,3,4-oxadiazole-2-carbonyl)amino]-2-pyridyl] spiro [2.5] octane-2-carboxylic acid] was run?
**A.** 49%

**Q.** With `O=C(Nc1ccc([C@H]2CC[C@]3(CC2)CC3C(=O)O)nc1)c1nnc(Nc2ccc(F)c(F)c2)o1` (stereo partly drawn) [Example B26, Trans-6-[5-[[5-(3,4-difluoroanilino)-1,3,4-oxadiazole-2-carbonyl]amino]-2-pyridyl] spiro [2.5] octane-2-carboxylic acid] as the compound, how does the inhibition at 1 µM read?
**A.** 37%

**Q.** Which inhibition at 1 µM does the source give for `O=C(Nc1ccc(N2CCC3(CC2)CC(C(=O)N2CCCC2)C3)nc1)c1nnc(Nc2ccc(F)c(F)c2)o1` [Example C1, 5-(3,4-difluoroanilino)-N-[6-[2-(pyrrolidine-1-carbonyl)-7-azaspiro[3.5]nonan-7-yl]-3-pyridyl]-1,3,4-oxadiazole-2-carboxamide] here?
**A.** 86%

**Q.** How did the inhibition at 1 µM turn out when `CC1CCCCN1C(=O)C1CC2(CCN(c3ccc(NC(=O)c4nnc(Nc5ccc(F)c(F)c5)o4)cn3)CC2)C1` (stereo not shown) [Example C2] was run?
**A.** 88%

**Q.** For `O=C(Nc1ccc(N2CCC3(CC2)CC(C(=O)N2CCOCC2)C3)nc1)c1nnc(Nc2ccc(F)c(F)c2)o1` [Example C3], which inhibition at 1 µM is on record?
**A.** 84%

**Q.** How did the inhibition at 1 µM turn out when `O=C(Nc1ccc(N2CCC3(CC2)CC(C(=O)NCC(F)(F)F)C3)nc1)c1nnc(Nc2ccc(F)c(F)c2)o1` [Example C4] was run?
**A.** 84%

**Q.** With `COC1CCN(C(=O)C2CC3(CCN(c4ccc(NC(=O)c5nnc(Nc6ccc(F)c(F)c6)o5)cn4)CC3)C2)CC1` [Example C5] as the compound, how does the inhibition at 1 µM read?
**A.** 90%

**Q.** `O=C1CCN(C(=O)C2CC3(CCN(c4ccc(NC(=O)c5nnc(Nc6ccc(F)c(F)c6)o5)cn4)CC3)C2)CC1` [Example C9] was tested. Which inhibition at 1 µM did it give?
**A.** 92%

**Q.** Which inhibition at 1 µM does the source give for `O=C(Nc1ccc(N2CCC3(CC2)CC(F)C3)nc1)c1nnc(Nc2ccc(F)c(F)c2)o1` [Example D7] here?
**A.** 87%

**Q.** With `O=C(Nc1ccc(N2CCC3(CC2)CC(F)C3)nc1)c1nnc(Nc2ccc(OCC(F)(F)F)nc2)o1` [Example D8] as the compound, how does the inhibition at 1 µM read?
**A.** 77%

**Q.** Which inhibition at 1 µM does the source give for `Cn1nnnc1C1CC2(CCN(c3ccc(NC(=O)c4nnc(Nc5ccc(F)c(F)c5)o4)cn3)CC2)C1` [Example D9] here?
**A.** 91%

**Q.** For `Nc1ncnc2ncn(-c3ccc(N4CCC5(CC4)CC(F)C5)nc3)c(=O)c12` [Example K4], which inhibition at 1 µM is on record?
**A.** 19%

**Q.** For `CC1(C)CN(c2ccc(C3CCC4(CCC(CC(=O)O)CC4)CC3)cc2)C(=O)c2c(N)ncnc21` (stereo not shown) [Example L6], which inhibition at 1 µM is on record?
**A.** 3%
